From US20050249831A1, “Herbal extract comprising a mixture of saponins obtained from sapindus trifoliatus for anticonvulsant activity” (priority 2002, published 2005)

Key:
[1] = test system: MES induced seizures in rats; experiment: Maximal Electroshock Seizure (MES) model; format: in vivo; details: Rattus norvegicus, ip, read-out: ED50, protection to hind limb tonic extension due to electroshock
Description: In order to evaluate the efficacy of the extract of Sapindus trifoliatus, for its prophylactic therapeutic potential in migraine, its role as an anticonvulsant was evaluated in an in vivo animal model. […]
Male Wistar rats (150-200 g) were used in the study. […] Mortality if any was recorded. […]
Values of incidence and mortality were expressed as ratios and analysed by Fisher's test. The latency for onset and duration of hind limb extension of maximal electroshock induced convulsions were averaged, expressed as mean±standard deviation. Mean values were analysed by one way ANOVA followed by Dunnett ‘t’ test for multiple comparison or Students ‘t’ test for comparing two means. […] ED50 values were calculated by probit analysis [Finney, D. J., Probit Analysis, Cambridge University Press, London, 1947].

[2] = test system: PTZ induced seizures in rats; format: in vivo; details: 4 mg/kg, i.p., 2 ml/kg, standard control

Row | SMILES | ED50 [1] [mg/kg] | Protection against PTZ induced seizures [2]
1 | CCCC(CCC)C(=O)[O-].[Na+] [Sodium valproate] | 67.7 | –
2 | CN1C(=O)CN=C(c2ccccc2)c2cc(Cl)ccc21 [diazepam, Diazepam] | – | significantly protected
